Assay results: patent publication US7732666B1, “O-methyltransferase gene from sorghum cloning, expression, transformation and characterization” (priority 2006, dated 2010)

How the values were obtained:
SbOMT3 = biological target: T1, SbOMT3 (Sorghum bicolor, UniProt A8QW53, DUP296-296); assay type: biochemical; details: for Relative Activity (%) of Recombinant SbOMT3: relative to 5-n-pentyl-resorcinol = 100%, 30 min at 30° C.
T1 construct: full-length open reading frames for all three OMTs were overexpressed in E. coli as N-terminal polyhistidine fusions; polyhistidine (pET15b) (N); made in house; host or cells: E. coli BL21/DE3
T1 sequence (A8QW53 other isoform, or with tags, fused parts or gaps DUP296-296): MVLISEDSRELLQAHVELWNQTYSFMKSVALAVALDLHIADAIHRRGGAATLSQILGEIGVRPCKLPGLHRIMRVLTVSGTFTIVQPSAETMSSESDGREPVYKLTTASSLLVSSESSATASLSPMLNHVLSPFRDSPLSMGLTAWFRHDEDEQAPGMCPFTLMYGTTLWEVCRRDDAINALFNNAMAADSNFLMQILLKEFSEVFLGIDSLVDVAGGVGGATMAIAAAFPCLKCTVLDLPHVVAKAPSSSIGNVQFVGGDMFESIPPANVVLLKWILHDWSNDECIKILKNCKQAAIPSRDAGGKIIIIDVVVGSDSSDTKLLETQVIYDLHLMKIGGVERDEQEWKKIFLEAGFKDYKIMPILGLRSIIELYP
Protocol: (§1) Substrate specificities and kinetic parameters for recombinant OMTs were determined using to a modified protocol based on Wang and Pichersky (1999. Arch. Biochem. Biophys. 368: 172-180). All enzymatic assays consisted of 90 μL of assay buffer (250 mM Tris-HCl, pH 7.5, 10 mM DTT), 200 μL of purified enzyme preparation (200 μg protein/ml in), 5 μL of a 10 mM substrate stock solution (dissolved in 100% ethanol), and 5 μL of S-[methyl-^14C] adenosyl-L-methionine (40-60 mCi/mmol, 0.1 mCi/ml; ICN Biomedicals, Irvine, Calif.). Reactions were incubated for 30 min at 30° C. using a Thermomixer (Brinkman Instrument, Westbury, N.Y.), then quenched by addition of 25 μL of 6 N HCl. Radiolabeled products were subsequently extracted by the addition of 1 mL of hexane:ethyl acetate (1:1 vol/vol), and 300 μL of the (upper) organic phase were transferred to scintillation vials containing 5 mL of Ultima Gold scintillation fluid (Packard BioScience, Meriden, CT). Scintillation counts were performed using a Tri-Carb 1600TR Liquid Scintillation Analyzer (Packard BioScience). Protein concentrations and time points used for activity measurements were controlled to insure linearity of the assays. Kinetic parameters were determined from assays performed in triplicate as described above, but with substrate concentrations ranging from 10 μM to 10 mM. Data from enzyme kinetics experiments were fit to the Michaelis-Menten equation using the SigmaPlot v. 9.01 enzyme kinetics module (Systat Software, Inc., Point Richmond, Calif.).
(§2) A panel of benzene-derivatives containing different functional groups and substitution patterns were tested in enzyme assays with all three recombinant enzymes (Table 2), including a series of 5-n-alkylresorcinols of increasing chain length, as well as 5-n-pentadecatrienyl resorcinol, the proposed sorgoleone pathway intermediate and in vivo substrate for the participating OMT enzyme (FIG. 1). For these analyses, full-length open reading frames for all three OMTs were overexpressed in E. coli as N-terminal polyhistidine fusions, purified using an activated Ni-column, then radiometrically assayed in the presence of different substrates as described by Wang and Pichersky (1999, supra), with slight modifications.

SbOMT1 = biological target: T2, SbOMT1 (Sorghum bicolor, UniProt A8QW52); assay: OMT enzymatic assay (radiometric, 14C-SAM) with recombinant SbOMT1; assay type: biochemical; details: relative to eugenol = 100%; 30 min at 30° C.
T2 construct: full-length open reading frames for all three OMTs were overexpressed in E. coli as N-terminal polyhistidine fusions; polyhistidine (pET15b) (N); made in house; host or cells: E. coli BL21/DE3
T2 sequence (A8QW52 1-376): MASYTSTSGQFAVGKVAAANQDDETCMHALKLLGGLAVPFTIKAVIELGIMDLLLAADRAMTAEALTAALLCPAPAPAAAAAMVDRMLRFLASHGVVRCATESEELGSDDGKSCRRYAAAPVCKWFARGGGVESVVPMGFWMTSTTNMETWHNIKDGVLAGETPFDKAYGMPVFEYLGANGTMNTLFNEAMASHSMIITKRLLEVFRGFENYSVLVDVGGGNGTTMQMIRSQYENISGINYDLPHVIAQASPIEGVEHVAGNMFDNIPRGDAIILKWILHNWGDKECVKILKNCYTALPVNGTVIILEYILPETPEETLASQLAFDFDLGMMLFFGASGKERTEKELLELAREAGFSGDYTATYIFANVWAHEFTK

[1] = system: human breast cancer and murine lymphoid neoplasma cell lines; details: cited from earlier work
[2] = system: Phaeoacremonium aleophilum, Phaeomoniella chlamydospora, Libertella blepharis, Fomitiporia punctata and Stereum hirsutum; details: Mazzullo et al. 2000; cited from earlier work
[3] = system: Candida albicans, Cryptococcus neoformans, Staphylococcus aureus, and methicillin-resistant S. aureus; details: Rimando et al. 2003a; cited from earlier work
SbOMT2 = biological target: T3, SbOMT2 (Sorghum bicolor, UniProt A8QW51); assay: Reaction of recombinant SbOMT2 with resveratrol, GC-MS analysis; assay type: biochemical
T3 construct: full-length open reading frames for all three OMTs were overexpressed in E. coli as N-terminal polyhistidine fusions; polyhistidine (pET15b) (N); made in house; host or cells: E. coli BL21/DE3
T3 sequence (A8QW51 1-372): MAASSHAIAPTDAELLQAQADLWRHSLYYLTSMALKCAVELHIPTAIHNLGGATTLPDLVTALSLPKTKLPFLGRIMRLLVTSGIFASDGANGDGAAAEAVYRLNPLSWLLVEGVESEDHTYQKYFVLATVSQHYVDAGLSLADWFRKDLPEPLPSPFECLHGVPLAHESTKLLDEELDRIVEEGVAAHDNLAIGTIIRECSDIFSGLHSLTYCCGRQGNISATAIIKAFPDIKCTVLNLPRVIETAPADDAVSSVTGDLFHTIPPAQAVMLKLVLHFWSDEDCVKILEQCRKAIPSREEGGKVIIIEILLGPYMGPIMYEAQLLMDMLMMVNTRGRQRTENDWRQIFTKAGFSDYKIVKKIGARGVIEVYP
Text: The products from these reactions were then chemically analyzed by gas chromatography/mass spectroscopy. […] Thus, only about 2% of the product obtained was pterostilbene; 88% was 3,5-dihydroxy-4′-methoxystilbene (FIG. 7B).

CCCCCc1cc(O)cc(O)c1 = assay: purified protein, by the assay type; assay type: biochemical, Sorghum bicolor; details: other: recombinant SbOMT3, alkylresorcinols and co-substrate SAM; pH 7.5; 30.0 °C
Protocol: as §1, §2

CCCCCCc1cc(O)cc(O)c1 = assay: purified protein, by the assay type; assay type: biochemical, Sorghum bicolor; details: other: recombinant SbOMT3, alkylresorcinols and co-substrate SAM; pH 7.5; 30.0 °C
Protocol: as §1, §2

CCCCc1cc(O)cc(O)c1 = assay: purified protein, by the assay type; assay type: biochemical, Sorghum bicolor; details: other: recombinant SbOMT3, alkylresorcinols and co-substrate SAM; pH 7.5; 30.0 °C
Protocol: as §1, §2

CCCCCCCc1cc(O)cc(O)c1 = assay: purified protein, by the assay type; assay type: biochemical, Sorghum bicolor; details: other: recombinant SbOMT3, alkylresorcinols and co-substrate SAM; pH 7.5; 30.0 °C
Protocol: as §1, §2

[4] = substrate: Oc1ccc(C=Cc2cc(O)cc(O)c2)cc1; assay: purified protein, by the assay type; details: other: recombinant SbOMT1, substrate resveratrol; pH 7.5; 30.0 °C

## C=CCc1ccc(O)c(OC)c1 [Eugenol]
SbOMT3
  Relative Activity (%) of Recombinant SbOMT3: 3.2 ± 0.5%
SbOMT1
  Relative Activity (%) of Recombinant SbOMT1: 100 ± 5.2%

## COc1cc(/C=C/C(=O)O)ccc1O [Ferulic acid]
SbOMT3
  Relative Activity (%) of Recombinant SbOMT3: 3.5 ± 0.6%
SbOMT1
  Relative Activity (%) of Recombinant SbOMT1: 3.1 ± 0.3%

## COc1ccccc1O [Guaiacol]
SbOMT3
  Relative Activity (%) of Recombinant SbOMT3: 3.2 ± 0.6%
SbOMT1
  Relative Activity (%) of Recombinant SbOMT1: 7.8 ± 0.5%

## COc1cc(C)cc(O)c1 [Orcinol monomethyl ether]
SbOMT3
  Relative Activity (%) of Recombinant SbOMT3: 3.5 ± 0.5%
SbOMT1
  Relative Activity (%) of Recombinant SbOMT1: 49.6 ± 1.6%

## Cc1cc(O)cc(O)c1 [Orcinol]
SbOMT3
  Relative Activity (%) of Recombinant SbOMT3: 4.5 ± 0.1%
SbOMT1
  Relative Activity (%) of Recombinant SbOMT1: 1.3 ± 0.7%

## COc1cc(/C=C/c2ccc(O)cc2)cc(OC)c1 [Pterostilbene]
[1]
  cytotoxicity against cancer cell lines: cytotoxic

## COc1cccc(O)c1 [Resorcinol monomethyl ether]
SbOMT3
  Relative Activity (%) of Recombinant SbOMT3: 3.2 ± 0.7%
SbOMT1
  Relative Activity (%) of Recombinant SbOMT1: 24.8 ± 1.1%

## Oc1cccc(O)c1 [Resorcinol]
SbOMT3
  Relative Activity (%) of Recombinant SbOMT3: 4.1 ± 0.1%

## Oc1ccc(C=Cc2cc(O)cc(O)c2)cc1 [Resveratrol]
[2]
  inhibition of esca fungi (mycelial growth): did not inhibit mycelial growth
[3]
  inhibition of human pathogens: ineffective
SbOMT2
  reaction of SbOMT2 with resveratrol: did not react

## C[S+](CC[C@H](N)C(=O)[O-])C[C@H]1O[C@@H](n2cnc3c(N)ncnc32)[C@H](O)[C@@H]1O (stereo partly drawn) [SAM, S-Adenosyl-L-Methionine]
SbOMT3; recombinant SbOMT3, alkylresorcinols and co-substrate SAM, read-out: Km
  Km: 67.5 µM

## O=C(O)/C=C/c1ccc(O)cc1 [p-Coumaric acid]
SbOMT3
  Relative Activity (%) of Recombinant SbOMT3: 3.5 ± 0.4%
SbOMT1
  Relative Activity (%) of Recombinant SbOMT1: 0%

## SbOMT3 (Sorghum bicolor; DUP296-296)
CCCCCc1cc(O)cc(O)c1
  Km: 152 µM
  Vmax: 0.000653 µmol/min/mg
  kcat: 0.00047 s⁻¹
  kcat/Km: 3.1 M⁻¹ s⁻¹
CCCCCCc1cc(O)cc(O)c1
  Km: 72 µM
  Vmax: 0.00042 µmol/min/mg
  kcat: 0.0003 s⁻¹
  kcat/Km: 4.2 M⁻¹ s⁻¹
CCCCc1cc(O)cc(O)c1
  Km: 481 µM
  Vmax: 0.00055 µmol/min/mg
  kcat: 0.00039 s⁻¹
  kcat/Km: 0.81 M⁻¹ s⁻¹
CCCCCCCc1cc(O)cc(O)c1
  Km: 23 µM
  Vmax: 0.000173 µmol/min/mg
  kcat: 0.00012 s⁻¹
  kcat/Km: 5.2 M⁻¹ s⁻¹

B1: SbOMT1 (Sorghum bicolor) (protein)
chain: T2 sequence (A8QW52 1-376)
[4]
  Km: 16.9 ± 1.2 µM
  Vmax: 0.00014 µmol/min/mg
  kcat: 0.0001 s⁻¹
  kcat/Km: 5.9 M⁻¹ s⁻¹
